The record followed here is the NIST ThermoML archive (doi:10.1016/j.jct.2010.11.004).

The conditions of the data set: 298.15 K; 101.33 kPa; Liquid; Vibrating tube method.

Numbers after ± are expanded uncertainties.

Regarding `CCCCCCCCC(C)=O` [2-decanone], the mass density is reported as 820.63 ± 0.24 kg/m3.
For `CCCCCCCCCCCCCC` [tetradecane], the mass density is listed as 760.2 ± 0.24 kg/m3.
In the case of `CCCCCOCCCCC` [dipentyl ether] it was 779.1 ± 0.24 kg/m3.
In the case of `CCCCCCCCCCCC` [dodecane] it was 745.28 ± 0.25 kg/m3; in that of `CCCCCCCCCCCCCCCC` [hexadecane], 770.31 ± 0.24 kg/m3.
